In patent US20070134286A1, “Methods for reducing intimal hyperplasia, smooth muscle cell proliferation and restenosis in mammals” (priority 2004, published 2007):
Like-named read-outs stand apart in the source and are kept apart here.

Columns and labels:
[1] = tested on: primary culture of human coronary artery smooth muscle cells; experiment: Affymetrix U133Av2 microarray gene expression; type: cell-based; settings: 100 nM, 30 hr, ratio to no-drug control; for FC angiopoietin 1 (NM_001146) / FC coagulation factor II (thrombin) receptor-like 1 (NM_005242) / FC endothelin receptor type B (NM_000115) / FC fibroblast growth factor 9 (glia-activating factor) (NM_002010) / FC fibroblast growth factor receptor 3 (achondroplasia, thanatophoric dwarfism) (NM_000142) / FC insulin-like growth factor 1 (somatomedin C) (NM_000618) / FC matrix metalloproteinase 14 (membrane-inserted) (NM_004995) / FC natriuretic peptide precursor B (NM_002521) / FC oxytocin receptor (NM_000916) / FC phospholamban (NM_002667) / FC prostaglandin-endoperoxide synthase 1 (prostaglandin G/H synthase and cyclooxygenase) (NM_000962) / FC thrombomodulin (NM_000361) / FC thrombospondin 1 (AI812030) / FC transforming growth factor, beta 2 (NM_003238) / FC transforming growth factor, beta 3 (J03241): Table 4
Experimental: Microarray: […] While the yield of total RNA was low ([…] total per sample), the RNAs were intact as judged by Agilent 2100 analysis. One μg of total RNA from each sample was used to prepare biotin-labeled cRNA target using standard Affymetrix protocols. Prepared cRNA targets were of good quality and quantity. The Affymetrix Human chip U133Av2 was used (22,000+ probe sets) and 10 μg cRNA target was applied to each array. […] Scanned images were loaded into the Rosetta Resolver 4.0 database and processed using the Resolver Affymetrix error model. Within Resolver the drug treated sample replicates (n=3) were informatically combined and ratios constructed relative to the combined control (no addition of drug) samples. The Resolver Affymetrix error model was used to develop each ratio and calculate a p-value. The Resolver error model is robust and includes reporter level, background and error values in the calculation of statistical significance. A combination of hierarchical clustering, gene ontology analysis and pathway mapping were used to assess the function of the regulated genes.

[2] = tested on: human coronary artery smooth muscle cells; experiment: 3H-thymidine incorporation (DNA synthesis / cell proliferation); type: cell-based
Experimental: One day after plating, the cells were treated with test agents for 24 hours and then labeled with 0.3 μCi/well of ^3H-thymidine for another 48 hours. Each well was washed with 0.3 ml/well of PBS, incubated with 0.2 ml/well of ice-cold 10% trichloroacetic acid (hereinafter “TCA”) for 30 minutes at 4° C., and then followed by another wash of 0.2 ml/well of TCA. Samples were dissolved in MICROSCINT™ 20 before counting. Data shown are mean ± the standard deviation (n=4).
Thymidine incorporation: Cells were plated at 1×10^6 cells/ml, 200 μl/well into 96-well plates (Costar). One day after plating, the cells were treated with test agents for 24 hr and then labeled with 0.3 μCi/well of ^3H-thymidine for another 48 hr. Each well was washed with 0.3 ml/well of PBS, incubated with 0.2 ml/well of ice-cold 10% trichloroacetic acid (TCA) for 30 min at 4° C., and then followed by another wash of 0.2 ml/well of TCA. Samples were dissolved in MICROSCINT™ 20 (Packard) before counting.

[3] = tested on: plasminogen activator inhibitor type-1 (PAI-1); experiment: SDS-PAGE and Western blot of PAI-1 in CASMC; type: cell-based, human; settings: Western blot, FIG. 6
Experimental: SDS-PAGE and Western Blot Analysis: Cells (1×10^6 cells per sample) pretreated with or without test agents were solubilized in 50 μl of SDS-PAGE sample buffer (Sigma, St. Louis, Mo.), and the protein content in each sample was determined by the Pierce (Rockford, Ill.) BCA protein assay. Samples were resolved by SDS-PAGE using a 4-12% NuPAGE gel (Invitrogen, Carlsbad, Calif.), and proteins were electrophoretically transferred to polyvinylidene fluoride (hereinafter “PVDF”) membrane for Western blotting. The membrane was blotted for 1 hour at 25° C. with 5% nonfat dry milk in PBS-T and then incubated with a mouse anti-PAI-1 monoclonal antibody (1000-fold dilution, Santa Cruz Biotechnology, Santa Cruz, Calif.) in PBS-T overnight at 4° C. The membrane was washed with PBS-T and incubated with a horseradish peroxidase-labeled anti-mouse antibody for 1 hour at 25° C. The membrane was then incubated with detection reagent (SuperSignal WestPico, Pierce, Rockford, Ill.). Specific bands were visualized by exposing the paper to Kodak BioMax films.

IGF1 = experiment: Real-time RT-PCR, IGF1 mRNA expression in smooth muscle cells; type: cell-based; settings: Homo sapiens, normalized to GAPDH, FIG. 7, read-out: EC50 on IGF1 mRNA expression (up-regulation)
Experimental: (§1) Primers and probes for Real-time Reverse Transcription-PCR: For quantitative PCR (qPCR), TaqMan™ probes that were 5′ labeled with the reporter 6-carboxyfluorescein (FAM) and 3′ labeled with the quencher tetramethylrhodamine (TAMRA) were used. The primer and probe sets were obtained from the Assay-on-Demand collection (Applied Biosytsems).
(§2) Real-time Reverse Transcription-PCR: PCR was performed with a 7900HT sequence detector (Applied Biosytsems). Each sample has a final volume of 25 μl containing 50 ng of cDNA, […] each of the forward and reverse PCR primers and […] of the TaqMan™ probe. Temperature conditions consisted of a step of 5 minutes at 95° C., followed by 40 cycles of 60° C. for 1 minute and 95° C. for 15 seconds. Data was collected during each extension phase of the PCR reaction and analyzed with the SDS software package (Applied Biosystems). Threshold cycles were determined for each gene. The expression level of target gene of interest was given as relative expression normalized against glyceraldehyde-3-phosphate dehydrogenase (GAPDH).

WT1 = experiment: Real-time RT-PCR, WT1 mRNA expression in smooth muscle cells; type: cell-based; settings: Homo sapiens, normalized to GAPDH, FIG. 7, read-out: EC50 on WT1 mRNA expression (up-regulation)
Experimental: as §1, §2

TGFβ3 = experiment: Real-time RT-PCR, TGFβ3 mRNA expression in smooth muscle cells; type: cell-based; settings: Homo sapiens, normalized to GAPDH, FIG. 7, read-out: EC50 on TGFβ3 mRNA expression (up-regulation)
Experimental: as §1, §2

VDR = settings: 0.1 μM, CASMC in growth medium, not all cells responded, FIG. 2

Compound: C=C1/C(=C\C=C2/CCC[C@]3(C)[C@@H]([C@H](C)CCCC(C)(C)O)CC[C@@H]23)C[C@@H](O)C[C@@H]1O [calcitriol, 1-alpha-25-dihydroxyvitamin D3]
- FC CD1D antigen, d polypeptide (205789_at) [1]: 6.95
- FC CDK5 regulatory subunit associated protein 2 (220935_s_at) [1]: 2.67
- FC Kruppel-like factor 4 (gut) (220266_s_at) [1]: 2.67
- FC PMS2 postmeiotic segregation increased 2 (S. cerevisiae) (209805_at) [1]: 2.85
- FC Wilms tumor 1 (206067_s_at) [1]: 3.55
- FC Wilms tumor 1 (216953_s_at) [1]: 6.63
- FC Wilms tumor associated protein (206954_at) [1]: 2.96
- FC basic helix-loop-helix domain containing, class B, 3 (221530_s_at) [1]: −2.00
- FC cholecystokinin B receptor (210381_s_at) [1]: −1.65
- FC cyclin F (204827_s_at) [1]: −1.09
- FC cysteine and glycine-rich protein 2 (207030_s_at) [1]: −2.13
- FC cysteine and glycine-rich protein 2 (211126_s_at) [1]: −2.21
- FC ecotropic viral integration site 2A (204774_at) [1]: −1.77
- FC fibroblast growth factor 9 (glia-activating factor) (206404_at) [1]: 2.07
- FC insulin-like growth factor 1 (somatomedin C) (209540_at) [1]: 4.39
- FC insulin-like growth factor 1 (somatomedin C) (209541_at) [1]: 2.78
- FC insulin-like growth factor 1 (somatomedin C) (209542_x_at) [1]: 3.23
- FC insulin-like growth factor 1 (somatomedin C) (211577_s_at) [1]: 3.47
- FC mitogen-activated protein kinase 13 (210058_at) [1]: 2.27
- FC mitogen-activated protein kinase 13 (210059_s_at) [1]: 3.27
- FC myosin heavy polypeptide 10, non-muscle (213067_at) [1]: −2.03
- FC putative lymphocyte G0/G1 switch gene (213524_s_at) [1]: 3.69
- FC retinoblastoma-like 2 (p130) (212332_at) [1]: 1.10
- FC suppressor of cytokine signaling 2 (203372_s_at) [1]: −2.29
- FC suppressor of cytokine signaling 2 (203373_at) [1]: −2.50
- FC tetraspan 1 (209114_at) [1]: −4.34
- FC transforming growth factor, beta 2 (209909_s_at) [1]: 2.91
- FC transforming growth factor, beta 2 (220407_s_at) [1]: 2.97
- FC transforming growth factor, beta 3 (209747_at) [1]: 2.83
- FC angiopoietin 1 (NM_001146) [1]: 2.0
- FC coagulation factor II (thrombin) receptor-like 1 (NM_005242) [1]: −1.7
- FC endothelin receptor type B (NM_000115) [1]: 3.4
- FC fibroblast growth factor 9 (glia-activating factor) (NM_002010) [1]: 2.1
- FC fibroblast growth factor receptor 3 (achondroplasia, thanatophoric dwarfism) (NM_000142) [1]: 1.9
- FC insulin-like growth factor 1 (somatomedin C) (NM_000618) [1]: 2.8
- FC matrix metalloproteinase 14 (membrane-inserted) (NM_004995) [1]: 2.1
- FC natriuretic peptide precursor B (NM_002521) [1]: −2.0
- FC oxytocin receptor (NM_000916) [1]: −3.0
- FC phospholamban (NM_002667) [1]: −2.6
- FC prostaglandin-endoperoxide synthase 1 (prostaglandin G/H synthase and cyclooxygenase) (NM_000962) [1]: 2.2
- FC thrombomodulin (NM_000361) [1]: 3.3
- FC thrombospondin 1 (AI812030) [1]: −3.2
- FC transforming growth factor, beta 2 (NM_003238) [1]: 2.9
- FC transforming growth factor, beta 3 (J03241) [1]: 2.9

Compound: C[C@H](/C=C/[C@H](C)C(C)(C)O)[C@H]1CC[C@H]2/C(=C/C=C3C[C@@H](O)C[C@H](O)C3)CCC[C@]12C [paricalcitol, 19-nor-1α,3β,25-trihydroxy-9,10-secoergosta-5(Z); 7(E),22(E)-triene]
- EC50 ([2]; Homo sapiens, Example 1, CASMC, FIG. 4, read-out: EC50 inhibiting DNA synthesis ([3H]-thymidine incorporation)): 0.044 ± 0.004 nM
- EC50 ([2]; Homo sapiens, Example 2, FIG. 8, read-out: EC50 inhibition of 3H-thymidine incorporation): 0.2 nM
- inhibition at 0.01 µM ([2]; Homo sapiens, Example 2, at 10 nM, compared to cells in growth medium): 46%
- potency in reducing PAI-1 level / inhibiting PAI-1 expression [3]: as potent as calcitriol
- FC CD1D antigen, d polypeptide (205789_at) [1]: 5.38
- FC CDK5 regulatory subunit associated protein 2 (220935_s_at) [1]: 2.91
- FC Kruppel-like factor 4 (gut) (220266_s_at) [1]: 2.37
- FC PMS2 postmeiotic segregation increased 2 (S. cerevisiae) (209805_at) [1]: 2.18
- FC Wilms tumor 1 (206067_s_at) [1]: 3.32
- FC Wilms tumor 1 (216953_s_at) [1]: 4.64
- FC Wilms tumor associated protein (206954_at) [1]: 2.72
- FC basic helix-loop-helix domain containing, class B, 3 (221530_s_at) [1]: −1.80
- FC cholecystokinin B receptor (210381_s_at) [1]: −3.04
- FC cyclin F (204827_s_at) [1]: −2.75
- FC cysteine and glycine-rich protein 2 (207030_s_at) [1]: −2.18
- FC cysteine and glycine-rich protein 2 (211126_s_at) [1]: −2.33
- FC ecotropic viral integration site 2A (204774_at) [1]: −2.49
- FC fibroblast growth factor 9 (glia-activating factor) (206404_at) [1]: 1.88
- FC insulin-like growth factor 1 (somatomedin C) (209540_at) [1]: 4.89
- FC insulin-like growth factor 1 (somatomedin C) (209541_at) [1]: 2.63
- FC insulin-like growth factor 1 (somatomedin C) (209542_x_at) [1]: 3.24
- FC insulin-like growth factor 1 (somatomedin C) (211577_s_at) [1]: 3.43
- FC mitogen-activated protein kinase 13 (210058_at) [1]: 2.40
- FC mitogen-activated protein kinase 13 (210059_s_at) [1]: 3.26
- FC myosin heavy polypeptide 10, non-muscle (213067_at) [1]: −1.80
- FC putative lymphocyte G0/G1 switch gene (213524_s_at) [1]: 3.46
- FC retinoblastoma-like 2 (p130) (212332_at) [1]: −1.37
- FC suppressor of cytokine signaling 2 (203372_s_at) [1]: −2.70
- FC suppressor of cytokine signaling 2 (203373_at) [1]: −2.39
- FC tetraspan 1 (209114_at) [1]: −1.79
- FC transforming growth factor, beta 2 (209909_s_at) [1]: 2.48
- FC transforming growth factor, beta 2 (220407_s_at) [1]: 1.88
- FC transforming growth factor, beta 3 (209747_at) [1]: 2.80
- FC angiopoietin 1 (NM_001146) [1]: 1.7
- FC coagulation factor II (thrombin) receptor-like 1 (NM_005242) [1]: −2.1
- FC endothelin receptor type B (NM_000115) [1]: 2.3
- FC fibroblast growth factor 9 (glia-activating factor) (NM_002010) [1]: 1.9
- FC fibroblast growth factor receptor 3 (achondroplasia, thanatophoric dwarfism) (NM_000142) [1]: 3.4
- FC insulin-like growth factor 1 (somatomedin C) (NM_000618) [1]: 2.5
- FC matrix metalloproteinase 14 (membrane-inserted) (NM_004995) [1]: 1.1
- FC natriuretic peptide precursor B (NM_002521) [1]: −2.5
- FC oxytocin receptor (NM_000916) [1]: −2.6
- FC phospholamban (NM_002667) [1]: −2.4
- FC prostaglandin-endoperoxide synthase 1 (prostaglandin G/H synthase and cyclooxygenase) (NM_000962) [1]: 2.0
- FC thrombomodulin (NM_000361) [1]: 3.0
- FC thrombospondin 1 (AI812030) [1]: −2.7
- FC transforming growth factor, beta 2 (NM_003238) [1]: 2.5
- FC transforming growth factor, beta 3 (J03241) [1]: 2.9
- EC50 (IGF1): 0.2 nM
- EC50 (WT1): 29.7 nM
- EC50 (TGFβ3): 10.6 nM
- VDR translocation (confocal microscopy) (VDR): VDR translocated into the nucleus

Compound: CC(=O)O[C@H]1C(=O)[C@@]2(C)[C@H]([C@H](OC(=O)c3ccccc3)[C@]3(O)C[C@H](OC(=O)[C@H](O)[C@@H](NC(=O)c4ccccc4)c4ccccc4)C(C)=C1C3(C)C)[C@]1(OC(C)=O)CO[C@@H]1C[C@@H]2O [taxol]
- effect on DNA synthesis ([3H]-thymidine incorporation) ([2]; Example 1, even at 0.01 nM, FIG. 3): severely impacted DNA synthesis
